Holding throughout (format): cell-based
The target of one experiment is T1, hGIPR (Homo sapiens, UniProt P48546).
T1 construct: expressed in transfected cells
T1 sequence (P48546 22-466): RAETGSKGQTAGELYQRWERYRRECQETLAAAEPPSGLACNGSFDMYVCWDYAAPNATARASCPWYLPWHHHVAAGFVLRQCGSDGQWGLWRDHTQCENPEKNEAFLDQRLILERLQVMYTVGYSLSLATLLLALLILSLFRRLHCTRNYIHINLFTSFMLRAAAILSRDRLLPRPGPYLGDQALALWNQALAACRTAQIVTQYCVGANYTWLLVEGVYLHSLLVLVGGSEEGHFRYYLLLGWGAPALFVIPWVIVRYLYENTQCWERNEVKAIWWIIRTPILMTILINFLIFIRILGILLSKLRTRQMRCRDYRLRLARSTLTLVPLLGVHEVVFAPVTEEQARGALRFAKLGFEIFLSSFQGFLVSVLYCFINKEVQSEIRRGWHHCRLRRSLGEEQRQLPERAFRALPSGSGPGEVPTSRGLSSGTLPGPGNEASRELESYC
Description: Functional cAMP formation (HTRF) in HEK-293 clonal cells expressing hGIPR, 0.1% bovine casein, without or with 1.0% human serum albumin. The settings on record: for Emax: percent of maximal response to GIP(1-42)NH2; for EC50: cAMP. In outline:
(§1)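 Cells were stimulated with peptide for 30 min at 37° C, then intracellular cAMP was measured by competitive HTRF (665/620 nm ratio) and converted to nM using a cAMP standard curve. Relative EC50 and Emax came from four-parameter logistic fits of percent maximal response against peptide concentration.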

A further experiment deals with T2, hGCGR (Homo sapiens, UniProt P47871).
T2 construct: expressed in transfected cells
T2 sequence (P47871 26-477): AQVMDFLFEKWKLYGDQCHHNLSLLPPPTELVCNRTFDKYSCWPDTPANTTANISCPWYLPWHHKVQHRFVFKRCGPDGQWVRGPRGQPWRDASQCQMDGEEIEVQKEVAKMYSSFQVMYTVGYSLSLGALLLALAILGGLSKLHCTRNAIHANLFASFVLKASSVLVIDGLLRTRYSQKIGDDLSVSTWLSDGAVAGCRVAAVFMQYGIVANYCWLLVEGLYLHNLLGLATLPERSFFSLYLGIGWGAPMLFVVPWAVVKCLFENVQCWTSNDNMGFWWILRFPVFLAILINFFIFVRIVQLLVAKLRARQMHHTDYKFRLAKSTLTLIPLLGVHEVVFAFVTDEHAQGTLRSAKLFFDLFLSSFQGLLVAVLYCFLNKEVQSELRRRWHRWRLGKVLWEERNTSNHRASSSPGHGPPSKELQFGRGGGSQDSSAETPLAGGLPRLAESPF
Nature of the experiment: Functional cAMP formation (HTRF) in HEK-293 clonal cells expressing hGCGR, 0.1% bovine casein, without or with 1.0% human serum albumin. The conditions noted are these: cAMP, 37° C. The essentials:
as §1
In general terms: Cyclic AMP is a second messenger, typically raised through Gs and lowered through Gi signalling.

Another experiment deals with hGLP-1R (Homo sapiens, UniProt P43220). Description: Functional cAMP formation (HTRF) in HEK-293 clonal cells expressing hGLP-1R, 0.1% bovine casein, without or with 1.0% human serum albumin. The conditions noted are these: for EC50: cAMP, 37° C., 0.1% bovine casein (no human serum albumin), geometric mean. More on the design: expressed in transfected cells. The essentials:
as §1

Where two headings read alike, the source gives them in different places. Bounds are passed on as bounds.

Broadly, the Emax is the size of the effect at its maximum, as opposed to the concentration needed. By EC50 is commonly meant the concentration at which the effect is half-maximal.

Sequence of hGLP-1R (P43220 24-463): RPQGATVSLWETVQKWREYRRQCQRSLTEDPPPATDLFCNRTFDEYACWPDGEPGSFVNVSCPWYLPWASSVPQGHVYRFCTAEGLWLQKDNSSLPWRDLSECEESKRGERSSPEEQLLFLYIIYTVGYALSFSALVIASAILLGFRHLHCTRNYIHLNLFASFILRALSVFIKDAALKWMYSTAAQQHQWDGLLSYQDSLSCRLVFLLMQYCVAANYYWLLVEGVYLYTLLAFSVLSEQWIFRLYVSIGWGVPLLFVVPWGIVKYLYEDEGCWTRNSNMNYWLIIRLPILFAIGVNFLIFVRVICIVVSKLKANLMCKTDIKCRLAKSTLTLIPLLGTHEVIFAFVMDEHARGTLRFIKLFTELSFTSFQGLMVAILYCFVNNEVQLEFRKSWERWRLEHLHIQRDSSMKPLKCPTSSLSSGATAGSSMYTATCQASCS

As for `CC[C@H](C)[C@H](NC(=O)[C@H](CC(C)C)NC(=O)[C@](C)(Cc1ccc(O)cc1)NC(=O)[C@@H](CCC(=O)O)NC(=O)[C@@H](NC(=O)[C@H](Cc1ccccc1)NC(=O)[C@H](CCCCNC(=O)COCCOCCNC(=O)CC[C@H](NC(=O)CCCCCCCCCOc1ccc(C(=O)O)cc1)C(=O)O)NC(=O)C(C)(C)NC(=O)[C@H](CCC(N)=O)NC(=O)[C@H](C)NC(=O)[C@H](CCCCNC(=O)COCCOCCNC(=O)CC[C@H](NC(=O)CCCCCCCCCOc1ccc(C(=O)O)cc1)C(=O)O)NC(=O)[C@H](CCCN)NC(=O)[C@H](CC(=O)O)NC(=O)[C@H](CC(C)C)NC(=O)[C@](C)(CC(C)C)NC(=O)[C@@H](NC(=O)C(C)(C)NC(=O)[C@@H](NC(=O)[C@H](CC(=O)O)NC(=O)[C@H](CO)NC(=O)[C@@H](NC(=O)[C@](C)(Cc1ccccc1F)NC(=O)[C@@H](NC(=O)CNC(=O)[C@H](CCC(=O)O)NC(=O)C(C)(C)NC(=O)[C@@H](N)Cc1ccc(O)cc1)[C@@H](C)O)[C@@H](C)O)C(C)C)[C@@H](C)CC)[C@@H](C)CC)C(=O)N[C@@H](CCC(=O)O)C(=O)NCC(=O)NCC(=O)N1CCC[C@H]1C(=O)N[C@@H](CO)C(=O)N[C@@H](CO)C(=O)NCC(=O)N[C@@H](C)C(=O)N1CCC[C@H]1C(=O)N1CCC[C@H]1C(=O)N1CCC[C@H]1C(=O)N[C@@H](CO)C(N)=O` [Example 378], the Emax at hGIPR (HEK293, read-out: hGIPR Emax, % ± SEM, cAMP, 37° C., 0.1% bovine casein and 1.0% human serum albumin) is 81.2%; at hGIPR (HEK293, read-out: hGIPR Emax, % ± SEM, cAMP, 37° C., 0.1% bovine casein, arithmetic mean), 93.5%; on hGLP-1R (HEK293, read-out: hGLP-1R Emax, % ± SEM, cAMP, 37° C., 0.1% bovine casein, percent of maximal response to GLP-1(7-36)NH2, arithmetic mean), 98.9%. Besides, the EC50 on hGIPR (hGIPR EC50, nM (SEM, n), 37° C., 0.1% bovine casein (no human serum albumin), geometric mean) was 0.0132 nM; on hGCGR (hGCGR EC50, nM (SEM, n), 0.1% bovine casein (no human serum albumin), geometric mean) it was more than 9950 nM; at hGCGR (hGCGR EC50, nM (SEM, n), 0.1% bovine casein and 1.0% human serum albumin, geometric mean (SEM, n)) it was more than 9950 nM; at hGLP-1R (hGLP-1R EC50, nM (SEM, n)) it was 0.166 nM.

On to `CC[C@H](C)[C@H](NC(=O)[C@H](CC(C)C)NC(=O)[C@](C)(Cc1ccc(O)cc1)NC(=O)[C@@H](CCC(=O)O)NC(=O)[C@@H](NC(=O)[C@H](Cc1ccccc1)NC(=O)[C@H](CCC(=O)O)NC(=O)C(C)(C)NC(=O)[C@H](CCC(N)=O)NC(=O)[C@H](C)NC(=O)[C@H](CCCCNC(=O)COCCOCCNC(=O)COCCOCCNC(=O)CC[C@H](NC(=O)CCCCCCCCCCCCC(=O)O)C(=O)O)NC(=O)[C@H](CCCN)NC(=O)[C@H](CC(=O)O)NC(=O)[C@H](CC(C)C)NC(=O)[C@](C)(CC(C)C)NC(=O)[C@@H](NC(=O)C(C)(C)NC(=O)[C@H](Cc1ccncc1)NC(=O)[C@H](CC(=O)O)NC(=O)[C@H](CO)NC(=O)[C@@H](NC(=O)[C@](C)(Cc1ccccc1F)NC(=O)[C@@H](NC(=O)CNC(=O)[C@H](CCC(=O)O)NC(=O)C(C)(C)NC(=O)[C@@H](N)Cc1ccc(O)cc1)[C@@H](C)O)[C@@H](C)O)[C@@H](C)CC)[C@@H](C)CC)C(=O)N[C@@H](CCCCNC(=O)COCCOCCNC(=O)COCCOCCNC(=O)CC[C@H](NC(=O)CCCCCCCCCCCCC(=O)O)C(=O)O)C(=O)NCC(=O)NCC(=O)N1CCC[C@H]1C(=O)N[C@@H](CO)C(=O)N[C@@H](CO)C(=O)NCC(=O)N[C@@H](C)C(=O)N1CCC[C@H]1C(=O)N1CCC[C@H]1C(=O)N1CCC[C@H]1C(=O)N[C@@H](CO)C(N)=O` [Example 358], for which the Emax at hGIPR (HEK293, cAMP, 37° C., 0.1% bovine casein and 1.0% human serum albumin, read-out: hGIPR Emax, % ± SEM) turned out to be 86.2%. For the same molecule, the EC50 at hGIPR (37° C., 0.1% bovine casein (no human serum albumin), geometric mean, read-out: hGIPR EC50, nM (SEM, n)) is 0.0137 nM; on hGIPR (37° C., 0.1% bovine casein and 1.0% human serum albumin, geometric mean (SEM, n), read-out: hGIPR EC50, nM (SEM, n)) it was 2.06 nM; on hGCGR (0.1% bovine casein (no human serum albumin), geometric mean, read-out: hGCGR EC50, nM (SEM, n)) it was more than 10100 nM; on hGCGR (0.1% bovine casein and 1.0% human serum albumin, geometric mean (SEM, n), read-out: hGCGR EC50, nM (SEM, n)), more than 9950 nM; on hGLP-1R (read-out: hGLP-1R EC50, nM (SEM, n)), 0.773 nM.

The record behind these values is patent US20230265151A1, “GIP/GLP1 CO-AGONIST COMPOUNDS” (priority 2020, published 2023).
